ChEMBL document CHEMBL1201862, “PubChem BioAssay data set” (2004)
Calls of active or inactive are those of the source.

Experiments:
Caspase-3 = target: T1, Caspase-3 (Homo sapiens, UniProt P42574); format: functional;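 further: Dose-response selectivity test against caspase-3 for candidate inhibitors of sentrin-specific proteases (SENPs)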
T1 sequence (P42574 whole entry): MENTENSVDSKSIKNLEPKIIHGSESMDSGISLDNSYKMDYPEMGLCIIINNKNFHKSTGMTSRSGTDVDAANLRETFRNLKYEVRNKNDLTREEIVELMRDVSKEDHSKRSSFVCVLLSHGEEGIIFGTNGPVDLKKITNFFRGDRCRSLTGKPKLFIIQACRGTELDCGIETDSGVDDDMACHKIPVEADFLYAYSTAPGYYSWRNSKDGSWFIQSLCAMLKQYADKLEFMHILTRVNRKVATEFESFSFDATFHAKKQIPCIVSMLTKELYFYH

[1] = target: T2, Sentrin-specific protease 7 (Homo sapiens, UniProt Q9BQF6); format: functional;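 further: Luminescence-based dose-response confirmation of ultra-high-throughput screening hits, measuring inhibition of SENP7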
T2 sequence (Q9BQF6 whole entry): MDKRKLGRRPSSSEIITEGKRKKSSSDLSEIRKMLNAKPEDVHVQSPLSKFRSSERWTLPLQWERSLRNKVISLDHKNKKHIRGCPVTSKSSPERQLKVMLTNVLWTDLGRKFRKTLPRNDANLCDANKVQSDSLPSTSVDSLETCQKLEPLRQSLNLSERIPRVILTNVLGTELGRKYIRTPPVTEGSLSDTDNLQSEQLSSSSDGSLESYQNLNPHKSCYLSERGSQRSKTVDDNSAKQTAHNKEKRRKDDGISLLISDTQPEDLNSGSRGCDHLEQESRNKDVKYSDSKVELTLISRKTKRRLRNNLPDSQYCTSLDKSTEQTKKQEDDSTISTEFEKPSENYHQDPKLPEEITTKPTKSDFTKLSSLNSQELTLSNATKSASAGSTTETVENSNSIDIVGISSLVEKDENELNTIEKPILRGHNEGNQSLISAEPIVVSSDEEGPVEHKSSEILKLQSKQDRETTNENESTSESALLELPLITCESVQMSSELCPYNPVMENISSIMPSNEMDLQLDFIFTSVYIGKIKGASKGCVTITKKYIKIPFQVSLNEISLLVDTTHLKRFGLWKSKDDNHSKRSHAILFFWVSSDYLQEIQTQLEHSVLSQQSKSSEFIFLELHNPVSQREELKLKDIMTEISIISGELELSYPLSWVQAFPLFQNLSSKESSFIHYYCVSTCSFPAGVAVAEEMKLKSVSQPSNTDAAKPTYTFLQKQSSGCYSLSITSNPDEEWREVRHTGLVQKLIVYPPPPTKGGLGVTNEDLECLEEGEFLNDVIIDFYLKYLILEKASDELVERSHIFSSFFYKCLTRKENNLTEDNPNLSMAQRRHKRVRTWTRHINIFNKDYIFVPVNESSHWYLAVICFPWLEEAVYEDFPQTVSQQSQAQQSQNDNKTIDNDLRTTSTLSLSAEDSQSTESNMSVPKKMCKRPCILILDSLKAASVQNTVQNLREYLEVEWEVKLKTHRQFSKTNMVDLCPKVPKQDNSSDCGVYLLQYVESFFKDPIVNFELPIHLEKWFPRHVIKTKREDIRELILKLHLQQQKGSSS

[2] = target: T3, Sentrin-specific protease 6 (Homo sapiens, UniProt Q9GZR1); format: functional;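 further: Luminescence-based dose-response confirmatory assay of SENP6 inhibition, following up an ultra-high-throughput screen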
T3 sequence (Q9GZR1 whole entry): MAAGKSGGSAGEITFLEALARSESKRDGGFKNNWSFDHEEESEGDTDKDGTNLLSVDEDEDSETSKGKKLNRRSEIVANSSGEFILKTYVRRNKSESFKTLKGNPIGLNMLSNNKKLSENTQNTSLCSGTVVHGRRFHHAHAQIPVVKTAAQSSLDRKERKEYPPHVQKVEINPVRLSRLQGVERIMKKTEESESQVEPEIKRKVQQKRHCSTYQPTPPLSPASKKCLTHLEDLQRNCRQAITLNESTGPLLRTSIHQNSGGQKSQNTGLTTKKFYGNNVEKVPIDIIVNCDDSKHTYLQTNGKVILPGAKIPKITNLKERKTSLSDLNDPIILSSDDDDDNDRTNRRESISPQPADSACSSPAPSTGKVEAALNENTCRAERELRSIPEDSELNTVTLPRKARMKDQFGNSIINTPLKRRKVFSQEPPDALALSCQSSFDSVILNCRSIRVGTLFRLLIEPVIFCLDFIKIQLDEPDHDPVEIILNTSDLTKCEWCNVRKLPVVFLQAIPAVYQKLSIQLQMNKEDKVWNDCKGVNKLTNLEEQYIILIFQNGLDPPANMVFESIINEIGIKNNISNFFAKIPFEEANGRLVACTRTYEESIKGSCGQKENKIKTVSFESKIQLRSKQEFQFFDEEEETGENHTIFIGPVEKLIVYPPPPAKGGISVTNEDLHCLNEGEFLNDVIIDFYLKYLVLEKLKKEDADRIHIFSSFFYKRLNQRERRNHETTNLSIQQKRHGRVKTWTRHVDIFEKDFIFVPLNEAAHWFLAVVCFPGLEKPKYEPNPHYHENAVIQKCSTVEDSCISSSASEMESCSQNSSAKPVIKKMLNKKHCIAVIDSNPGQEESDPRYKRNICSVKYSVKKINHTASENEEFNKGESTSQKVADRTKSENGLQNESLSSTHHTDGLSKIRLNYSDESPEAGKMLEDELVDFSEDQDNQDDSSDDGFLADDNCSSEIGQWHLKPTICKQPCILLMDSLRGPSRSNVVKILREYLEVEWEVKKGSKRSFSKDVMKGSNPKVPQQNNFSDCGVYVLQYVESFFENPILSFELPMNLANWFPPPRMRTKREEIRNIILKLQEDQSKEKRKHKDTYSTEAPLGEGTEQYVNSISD

[3] = target: T4, Sentrin-specific protease 8 (Homo sapiens, UniProt Q96LD8); format: functional;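 further: luminescence read-out of SENP8 inhibition, dose-response confirmation following an ultra-high-throughput screen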
T4 sequence (Q96LD8 whole entry): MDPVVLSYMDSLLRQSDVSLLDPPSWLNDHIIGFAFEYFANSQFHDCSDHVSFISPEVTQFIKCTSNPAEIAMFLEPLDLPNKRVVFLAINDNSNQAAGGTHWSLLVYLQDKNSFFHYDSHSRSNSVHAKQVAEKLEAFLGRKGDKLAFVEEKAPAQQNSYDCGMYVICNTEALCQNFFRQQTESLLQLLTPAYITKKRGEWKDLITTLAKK

Large T antigen = Large T antigen (Simian virus 40, UniProt P03070); format: functional, Betapolyomavirus macacae;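 further: Confirmatory-stage PubChem screen for compounds that inhibit SV40 T antigen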
[4] = viability loss in HeLa cells – cytotoxicity control for MgcRacGAP inhibitor project, dose response (AID 624300); format: functional
[5] = target: T5, Rac GTPase-activating protein 1 (Homo sapiens, UniProt Q9H0H5); test: blockers of MgcRacGAP-driven Rac1 GTP hydrolysis – biochemical, ADP Hunter fluorescence, primary and confirmatory, confirmation (AID 624330); format: functional
T5 sequence (Q9H0H5 whole entry): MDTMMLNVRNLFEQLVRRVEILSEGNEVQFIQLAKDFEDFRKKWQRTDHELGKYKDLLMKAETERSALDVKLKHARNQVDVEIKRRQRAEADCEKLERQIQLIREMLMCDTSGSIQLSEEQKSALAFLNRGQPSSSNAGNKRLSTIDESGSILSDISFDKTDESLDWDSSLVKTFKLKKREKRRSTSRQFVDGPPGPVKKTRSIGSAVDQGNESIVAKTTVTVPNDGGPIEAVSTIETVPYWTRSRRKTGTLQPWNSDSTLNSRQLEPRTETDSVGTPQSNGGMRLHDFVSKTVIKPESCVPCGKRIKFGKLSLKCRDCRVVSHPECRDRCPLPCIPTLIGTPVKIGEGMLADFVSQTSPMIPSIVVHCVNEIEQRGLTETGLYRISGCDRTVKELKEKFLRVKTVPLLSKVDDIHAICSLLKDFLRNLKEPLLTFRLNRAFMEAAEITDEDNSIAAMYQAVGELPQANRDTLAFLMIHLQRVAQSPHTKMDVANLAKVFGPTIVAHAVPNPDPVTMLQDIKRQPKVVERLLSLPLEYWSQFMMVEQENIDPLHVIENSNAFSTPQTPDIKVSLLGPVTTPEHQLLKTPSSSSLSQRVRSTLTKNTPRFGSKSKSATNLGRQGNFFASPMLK

Paired box protein Pax-8 = Paired box protein Pax-8 (Homo sapiens, UniProt Q06710); test: PAX8 transcriptional activity inhibition in RMG-I – RMG-I cells, luciferase, cherry-pick, dose response (AID 687027); format: functional, cell-based;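 further: luciferase reporter driven by Pax8 target thyroperoxidase promoter measured by SteadyGlo luminescence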
[6] = OVCAR-3 cell viability loss – plate reader, dry powder samples, PAX8 inhibitor project, dose response (AID 743044); format: functional, cell-based
[7] = IGROV1 cell killing – plate reader, dry powder samples, PAX8 inhibitor project, dose response (AID 743043); format: functional, cell-based; conditions: IGROV-1
[8] = OVCAR8 cell viability loss – plate reader, dry powder samples, PAX8 project, dose response (AID 743197); format: functional, cell-based; conditions: OVCAR-8
Caspase-6 = target: T6, Caspase-6 (Homo sapiens, UniProt P55212); test: inhibition of CASP6 peptide cleavage – biochemical, VEID-R110 fluorescence, cherry-pick, dose response (AID 720632)
T6 sequence (P55212 whole entry): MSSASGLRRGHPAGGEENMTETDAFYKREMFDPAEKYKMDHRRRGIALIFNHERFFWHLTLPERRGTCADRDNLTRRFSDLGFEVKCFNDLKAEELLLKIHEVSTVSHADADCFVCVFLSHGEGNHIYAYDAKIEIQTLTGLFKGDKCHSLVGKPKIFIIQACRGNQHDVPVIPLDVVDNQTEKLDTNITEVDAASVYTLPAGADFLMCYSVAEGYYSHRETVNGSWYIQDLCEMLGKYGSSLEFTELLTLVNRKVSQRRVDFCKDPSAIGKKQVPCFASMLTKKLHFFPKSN

[9] = system: Streptococcus sp. 'group A'; test: Streptococcus pyogenes SK(-)GAS viability under kanamycin – luminescence, BacTiterGlo, confirmation, counter-screen for streptokinase expression inhibitor project, dose response (AID 1900); format: functional, organism-based
Streptokinase A = target: T7, Streptokinase A (Streptococcus pyogenes serotype M1, UniProt P10520); test: viability-normalized secreted streptokinase activity reduction – plasminogen activation absorbance, OD405, dose response (AID 1914); format: functional, Streptococcus pyogenes M1 GAS;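 further: secreted streptokinase activity via plasminogen activation per viability signal from cell pellet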
T7 sequence (P10520 whole entry): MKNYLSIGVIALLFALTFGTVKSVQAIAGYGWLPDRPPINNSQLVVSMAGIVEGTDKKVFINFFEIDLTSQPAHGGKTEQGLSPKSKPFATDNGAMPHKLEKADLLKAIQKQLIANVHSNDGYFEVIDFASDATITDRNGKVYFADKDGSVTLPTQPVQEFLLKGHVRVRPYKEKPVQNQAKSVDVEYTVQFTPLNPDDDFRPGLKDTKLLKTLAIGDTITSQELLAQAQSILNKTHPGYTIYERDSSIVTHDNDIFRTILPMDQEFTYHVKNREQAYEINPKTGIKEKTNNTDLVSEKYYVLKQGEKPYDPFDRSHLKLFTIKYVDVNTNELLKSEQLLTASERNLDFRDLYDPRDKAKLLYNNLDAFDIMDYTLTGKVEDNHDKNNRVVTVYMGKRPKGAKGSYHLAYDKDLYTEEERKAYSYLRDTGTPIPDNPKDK

Streptococcus = test: GAS UMAA2166 growth inhibition – luminescence, BacTiterGlo, counter-screen for streptokinase expression inhibitor project, dose response (AID 1915); format: functional, organism-based;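 further: potency for reduction of bacterial viability or growth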
[10] = target: FAD-linked sulfhydryl oxidase ALR (Homo sapiens, UniProt P55789); test: ALR-catalysed DTT oxidation blockers – biochemical, H2O2 detection, luminescence, cherry-pick, dose response (AID 493248)
[11] = target: T8, Carboxy-terminal domain RNA polymerase II polypeptide A small phosphatase 1 (Homo sapiens, UniProt Q9GZU7); test: CTDSP1 inhibitors, concentration-response, biochemical, absorbance readout, ultra-high-throughput screen actives (AID 540297); format: functional
T8 sequence (Q9GZU7 whole entry): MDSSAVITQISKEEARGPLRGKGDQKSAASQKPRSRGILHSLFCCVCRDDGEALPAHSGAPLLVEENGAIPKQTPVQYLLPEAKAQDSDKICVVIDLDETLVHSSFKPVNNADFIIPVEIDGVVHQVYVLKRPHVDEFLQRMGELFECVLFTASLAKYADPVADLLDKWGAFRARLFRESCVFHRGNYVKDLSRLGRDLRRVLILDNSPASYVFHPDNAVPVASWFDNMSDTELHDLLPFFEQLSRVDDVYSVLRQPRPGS

Paired box protein Pax-8, sequence (Q06710 whole entry): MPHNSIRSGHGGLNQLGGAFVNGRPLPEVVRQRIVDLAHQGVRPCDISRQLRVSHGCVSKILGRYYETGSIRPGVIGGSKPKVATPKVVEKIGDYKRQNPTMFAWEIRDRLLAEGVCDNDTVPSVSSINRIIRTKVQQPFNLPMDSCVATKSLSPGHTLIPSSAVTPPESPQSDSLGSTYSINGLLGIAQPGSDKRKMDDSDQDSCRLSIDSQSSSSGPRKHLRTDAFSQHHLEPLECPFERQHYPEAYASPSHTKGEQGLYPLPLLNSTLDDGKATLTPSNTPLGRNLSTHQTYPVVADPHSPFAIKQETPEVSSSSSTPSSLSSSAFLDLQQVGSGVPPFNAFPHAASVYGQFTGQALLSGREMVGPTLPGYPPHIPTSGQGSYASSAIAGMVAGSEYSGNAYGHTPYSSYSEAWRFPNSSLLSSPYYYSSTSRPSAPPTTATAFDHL
Large T antigen, sequence (P03070 whole entry): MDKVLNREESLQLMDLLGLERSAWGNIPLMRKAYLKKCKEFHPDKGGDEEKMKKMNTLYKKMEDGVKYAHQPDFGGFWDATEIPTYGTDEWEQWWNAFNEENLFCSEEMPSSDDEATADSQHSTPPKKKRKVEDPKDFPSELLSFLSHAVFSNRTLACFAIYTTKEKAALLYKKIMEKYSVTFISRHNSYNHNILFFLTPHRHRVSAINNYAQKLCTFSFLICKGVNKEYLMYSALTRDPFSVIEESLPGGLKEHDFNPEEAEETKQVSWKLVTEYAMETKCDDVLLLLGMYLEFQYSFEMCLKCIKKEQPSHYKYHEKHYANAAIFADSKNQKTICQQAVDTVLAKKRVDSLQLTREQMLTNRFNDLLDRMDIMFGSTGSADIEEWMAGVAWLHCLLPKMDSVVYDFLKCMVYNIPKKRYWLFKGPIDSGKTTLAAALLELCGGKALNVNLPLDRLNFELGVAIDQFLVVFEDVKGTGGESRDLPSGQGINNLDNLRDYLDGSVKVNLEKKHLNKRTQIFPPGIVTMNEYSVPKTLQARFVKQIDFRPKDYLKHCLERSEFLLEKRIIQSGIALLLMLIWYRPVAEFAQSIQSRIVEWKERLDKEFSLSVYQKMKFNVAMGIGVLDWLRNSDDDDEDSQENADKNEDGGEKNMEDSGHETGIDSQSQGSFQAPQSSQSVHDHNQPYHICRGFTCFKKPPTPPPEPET
FAD-linked sulfhydryl oxidase ALR, sequence (P55789 whole entry, the tested form may be a part): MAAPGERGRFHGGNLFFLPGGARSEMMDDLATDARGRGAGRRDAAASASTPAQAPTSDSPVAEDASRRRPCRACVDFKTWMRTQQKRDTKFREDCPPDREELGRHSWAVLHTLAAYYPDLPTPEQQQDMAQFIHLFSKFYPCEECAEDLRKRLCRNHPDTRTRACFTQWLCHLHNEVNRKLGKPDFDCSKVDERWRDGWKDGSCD

Structure (SMILES): c1ccc(Nc2ncnc3c2oc2ccccc23)cc1
- IC50 (Caspase-3): 31.3 µM (active)
- IC50 [1]: 11.9 µM (active)
- IC50 [2]: > 100 µM (inactive)
- IC50 [3]: > 100 µM (inactive)

Structure (SMILES): Cc1ccc(C2=NOC(=O)/C2=C\c2ccc(C)o2)cc1
- IC50 (Large T antigen): 78.1 µM (active)
- CC50 [4]: 100 µM (active)
- IC50 [5]: 44.8 µM (active)

Structure (SMILES): COc1ccc(S(=O)(=O)N(C)C[C@@H]2OCCCC[C@H](C)Oc3ccc(NS(=O)(=O)c4ccccc4)cc3C(=O)N([C@H](C)CO)C[C@H]2C)cc1
- AC50 (Paired box protein Pax-8): 5.15 µM (active)
- AC50 [6]: 28.2 µM (active)
- AC50 [7]: 43.2 µM (active)
- AC50 [8]: > 70 µM (inactive)

Structure (SMILES): Cn1cnnc1SCC(=O)Nc1ncc([N+](=O)[O-])s1
- AC50 (Caspase-6): 3.04 µM (active)

Structure (SMILES): COc1cc(/C=N/NC(=O)c2cc(-c3c(C)nn(-c4ccccc4)c3C)[nH]n2)ccc1O
- EC50 [9]: 4.04 µM (active)
- EC50 (Streptokinase A): 43.9 µM (inconclusive)
- EC50 (Streptococcus): 4.37 µM (active)
- AC50 [10]: 0.105 µM (active)
- CC50 [4]: 90 µM (active)
- IC50 [5]: 39.1 µM (active)

Structure (SMILES): CCO/C=C1/C(=O)N(c2ccc(OC)cc2)C(=O)c2ccccc21
- IC50 (Caspase-3): 7.36 µM (active)
- IC50 [1]: 25.8 µM (active)
- IC50 [2]: 8.55 µM (active)
- IC50 [3]: 11.6 µM (active)

Structure (SMILES): O=C(Nc1cccnc1Cl)c1ccc(=O)oc1
- IC50 [11]: 17.8 µM (active)
- AC50 (Caspase-6): 22 µM (active)

Structure (SMILES): COc1cc(-c2cc(-c3ccc(O)cc3)nc(N)c2C#N)ccc1O
- CC50 [4]: 100 µM (active)
- IC50 [5]: 34.7 µM (active)
